The test system of experiment [1] is PTZ-evoked lethal seizures. Description: CO2 inhalation at onset of PTZ-evoked generalized seizures, survival. The format is in vivo, mouse. The following applies: 90 mg/kg PTZ IP, 10% CO2 in air for 15 minutes from onset of generalized seizures. As to the method:
Age (13-16 weeks) and gender-matched ASIC1a+/+ and ASIC1a−/− mice were injected IP with 90 mg/kg PTZ to test the anti-epileptic effects of CO2. A high dose of PTZ was administered to evoke lethal seizures in mice of both genotypes (FIG. 6a). Kaplan-Meier survival analysis of ASIC1a+/+ and ASIC1a−/− mice in response to 90 mg/kg PTZ while breathing compressed air was conducted (+/+, n 7; −/−, n=7). Both mice had the same rate of reduced survival (Mantel-Cox Log Rank, p=0.582).
After the onset of generalized-clonic seizures (identified behaviorally by clonus in all four limbs), compressed air or 10% CO2 (in air) was rapidly administered in an airtight Plexiglas chamber for 15 minutes (FIG. 6b). The onset latency and time of CO2 administration was similar between genotypes (inset) (unpaired T-test, df (14), t=0.663, p=0.518). The chamber was perfused with CO2 until minute 15, and then switched to compressed air for the duration of the trial (+/+, n=8; −/−, n=8). […] In the ASIC1a−/− mice, seizures continued to progress rapidly to death. All of the ASIC1a+/+ mice survived until the CO2 was switched back to air at minute 15, whereupon the mice rapidly died. The results verified the in vitro findings and taught that ASIC1a also mediates the anti-epileptic effects of low pH in vivo.

A further experiment addresses T1, ASIC1a (Mus musculus, UniProt Q6NXK8).
T1 construct: from tissue; host or cells: brain of living wild-type mice (C57/B16 background), ICV injection
T1 sequence (Q6NXK8 1-526): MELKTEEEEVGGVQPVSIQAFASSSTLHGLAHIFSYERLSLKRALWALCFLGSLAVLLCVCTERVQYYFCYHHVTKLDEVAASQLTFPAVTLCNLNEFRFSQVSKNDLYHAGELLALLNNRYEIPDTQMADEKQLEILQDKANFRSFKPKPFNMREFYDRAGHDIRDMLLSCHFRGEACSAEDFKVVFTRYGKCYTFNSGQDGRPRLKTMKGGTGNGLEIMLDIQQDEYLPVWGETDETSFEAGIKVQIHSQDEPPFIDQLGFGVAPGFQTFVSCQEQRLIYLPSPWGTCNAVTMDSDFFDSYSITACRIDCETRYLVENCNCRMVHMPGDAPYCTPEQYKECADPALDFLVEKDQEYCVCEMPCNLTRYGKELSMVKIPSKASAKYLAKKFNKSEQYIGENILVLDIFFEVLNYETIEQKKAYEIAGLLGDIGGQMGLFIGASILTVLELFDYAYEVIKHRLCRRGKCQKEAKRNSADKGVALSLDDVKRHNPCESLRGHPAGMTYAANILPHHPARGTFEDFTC
Description: Kainate-induced seizures after ICV injection of PcTx1 in wild-type mice. The following applies: ICV injection 2 hours before kainate 20 mg/kg IP. The format is in vivo. On the procedure: Similar effects on seizure activity with both ASIC1a gene disruption and pharmalogical blockade indicate that developmental abnormalities were not responsible for the effects in ASIC1a−/− mice.
Left-lateral, ICV guide cannulae were implanted in anesthetized mice (relative to bregma: anteroposterior −0.3 mm, lateral−1.0 mm, ventral=3.0 mm) and verified by methylene blue injection after euthanasia. Three to five days later, 5 uL or PcTx1-containing venom (SpiderPharm, Yarnell, Ariz.) ([…]) was injected in ACSF (in mM: NaCl 124, KCl 3, NaH2PO4 1.2, MgSO4 1.2, CaCl2 2, NaHCO3 26) or ACSF alone into wild-type mice using a 10 uL-Hamilton syringe connected to a 30-gauge injection (over 10 seconds). Two hours later, mice were injected with kainate (20 mg/kg, IP) then mouse behavior was scored. Continuous, tonic-clonic seizures were identified by tonus and clonus in all four limbs with loss of posture lasting greater than 60 seconds.

Take `O=C=O` [CO2, carbon dioxide]: the “effect on lethal seizures (survival)” value in experiment [1] (ASIC1a-/- mice) is “had little effect”; in experiment [1] (WT (ASIC1a+/+) mice), “prevented lethal seizures”.

In the case of psalmotoxin 1 [PcTx1], the “incidence of continuous GTCS following kainate injection” value with ASIC1a is listed as “increased the incidence of continuous GTCS”.

These data come from patent US20090291150A1, “METHOD AND COMPOSITIONS FOR TREATING AND […] BY […]-SENSING ION CHANNEL ACTIVITY” (priority 2008, published 2009).
